Experimental data: ChEMBL document CHEMBL1159197, “Novel bromopyrrole alkaloids from the sponge Agelas dispar” (1998)
≈ marks a conversion by molar mass, not a printed value. Calls of active or inactive are those of the source. The calls are words filed in the database; no cut-off is given here.

Assays:
Aspergillus niger = assay: Antimicrobial activity against Aspergillus niger; assay type: functional, organism-based
Staphylococcus aureus = assay: Antimicrobial activity against Staphylococcus aureus ATCC 6538; assay type: functional
Bacillus subtilis = assay: Antimicrobial activity against Bacillus subtilis ATCC 6633; assay type: functional

MIC (Staphylococcus aureus)	MIC (Bacillus subtilis)	SMILES	Activity (Aspergillus niger)	Activity (Staphylococcus aureus)	Activity (Bacillus subtilis)
		C[N+]1=CNC[C@]1(C)C[C@@H](NC(=O)c1cc(Br)c[nH]1)C(=O)[O-]	Active		
55 µg/mL (≈ 156 µM)	45 µg/mL (≈ 128 µM)	O=C(O)C[C@H]1CNC(=O)c2cc(Br)c(Br)n21 [LONGAMIDE B]			
		C[N+]1=CNC[C@]1(C)C[C@H](NC(=O)c1cc(Br)c[nH]1)C(=O)[O-]	Active		
35 µg/mL (≈ 108 µM)	40 µg/mL (≈ 123 µM)	Cn1c(/C=C\CNC(=O)c2cc(Br)c[nH]2)cnc1N [KERAMADINE]			
		C[C@]1(C[C@H](NC(=O)c2cc(Br)c[nH]2)C(=O)O)CNC=N1	Active	inactive	inactive
		C[C@]1(C[C@@H](NC(=O)c2cc(Br)c[nH]2)C(=O)O)CNC=N1	Active	inactive	inactive
